Measurements published in patent publication US20150190369A1, “QUERCETIN-3-GLUCOSIDE AND USES THEREOF” (priority 2012, published 2015).

Columns and labels:
ABCG1 = experiment: Immunoblotting for ABCG1 in MIN6 β-cells; assay type: cell-based, mouse; details: MIN6, Q3G-treated
Procedure: (§1) The corresponding photographs of the immunoblotting results are also shown. MIN6 cells were incubated for 24 h in the presence of 16 μM Q3G. Cell lysates were analyzed by semi-quantitative immunoblotting using different antibodies successively.
(§2) Mouse insulinoma MIN6 cells were cultured in a 5% CO2-95% air atmosphere at 37° C. in DMEM medium containing 10% heat-inactivated fetal bovine serum, 1 mM Na-pyruvate, 2 mM L-glutamine, 25 mM D-glucose, and 28 μM β-mercaptoethanol. Q3G at a specific final concentration was supplemented to the culture medium and incubation was conducted for a selected length of time. Media were collected, spun at 600 g to sediment suspended cells, supplemented with 0.5 volumes of 3×RIPA-PIC (1×: 50 mM Tris-HCl, pH 8, 150 mM NaCl, 1% NP-40, 0.5% Na-deoxycholate and 0.1% SDS and PIC). Cells were lysed in 1×RIPA-PIC for immuno-blotting, or in RNA extraction buffer for qRT-PCR.
(§3) Cell lysates were fractionated by SDS-PAGE and electrophoretically transferred onto a polyvinylidene fluoride membrane. […] The signal was captured on X-ray film and immunoreactive bands analyzed by densitometry on a Syngene's ChemiGenius^2XE Bio Imaging System (Cambridge, Mass.) within the dynamic range of the instrument. […]

LDLR mRNA = experiment: qRT-PCR for LDLR mRNA in MIN6 β-cells; assay type: cell-based, mouse; design: increase in LDLR mRNA: dose or concentration left out as unconfirmed; details: MIN6, 24 h
Procedure: as §2
For the mouse studies, the levels of specific mRNAs were quantified in a PCR-based fluorogenic assay using the Taqman technology (Holland et al., 1991). Briefly, total RNA was extracted using the RNeasy extraction kit and reverse-transcribed into cDNA using random hexameric primers and the Superscript II RNase H-Reverse Transcriptase. The cDNA was used as a template to produce PCR amplicons using FastStart TaqMan ProbeMaster-Rox master mix, primer pairs and the appropriate fluorescent probes) in the Stratagene Mx3005P thermocycler. Standard curves were established using varying amounts of pre-quantified amplicons of each transcript. The level of mRNA for the TATA-box binding protein (TBP) was used for normalization.
MIN6 β-cells were incubated for 24 h in the presence of different concentrations of Q3G. Total RNA was extracted and analyzed by qRT-PCR for the levels of mRNA for PCSK9, LDLR, ABCA1 and ABCG1.

LDLR = experiment: Immunoblotting for LDLR in MIN6 β-cells; assay type: cell-based, mouse
Procedure: as §1, §2, §3

SREBP-2 = experiment: Immunoblotting for SREBP-2-related proteins (proSREBP-2 proteolytic activation) in Huh7 cells; assay type: cell-based, human; details: Huh7, 24 h, 5 μM Q3G, normalized for β-actin
Procedure: FIGS. 9A and 9B are graphs illustrating the proSREBPs-2 mRNA and SREBP-2-related protein levels for cells exposed to Q3G. Cells were incubated for 24 h in medium 5 μM Q3G. FIG. 9A illustrates the results for quantitative RT-PCR for proSREBPs-2 mRNA levels. Values are the means of triplicate experiments±SEM. FIG. 9B illustrates the results for semi-quantitative immunoblotting for cellular SREBP-2-related protein. […]
At passage, Huh7 cells were routinely seeded at sub-confluence (˜10^6 cells/10-cm dish) in Dulbecco's modified Eagle's medium (DMEM) containing 10% fetal bovine serum (FBS) or LPDS (for experiments) and 50 μg/ml gentamycin. They were incubated overnight at 37° C., in a humidified 5% CO2-95% air atmosphere. Cells were treated or not with Q3G at defined concentrations and for defined lengths of time. Media were collected and centrifuged at 200 g for 5 min to sediment suspended cells; supernatants were collected and supplemented with 0.33 volumes of a 3×-concentrated PIC. […]
as §3

O=c1c(O[C@@H]2O[C@H](CO)[C@@H](O)[C@H](O)[C@H]2O)c(-c2ccc(O)c(O)c2)oc2cc(O)cc(O)c12 [Q3G, quercetin-3-O-β-D-glucoside]
relative amount of ABCG1 protein compared with mRNA (ABCG1): in concordance with the relative amounts of mRNA | effect on LDL-receptor mRNA levels (LDLR mRNA; Q3G 8 mM and above): increased | effect on LDLR mRNA levels (LDLR mRNA; Q3G up to 4 mM): does not affect | increase in LDLR mRNA (LDLR mRNA; maximum Q3G concentration used): 1.8 fold | amount of cell-surface LDL-receptor versus untreated MIN6 β-cells (LDLR; MIN6, 24 h, 16 μM Q3G): approximately 1.4 times | relative amount of LDLR protein compared with mRNA (LDLR; MIN6, Q3G-treated): in concordance with the relative amounts of mRNA | increase of ratio of 65-kDa nuclear SREBP-2 over its 148-kDa ER precursor (SREBP-2): up to 4 fold
